Laboratory results published in paper PMC9256790 (Molecular cancer therapeutics, 2022).

Experiments:
[1] = system: orthotopic MDA-MB-231 xenografts; assay: Orthotopic MDA-MB-231 xenograft in comparison with CA4P; format: in vivo, mice
cHCI-2 = assay: Cell proliferation; format: cell-based, Human; settings: for proliferation of cHCI-2 cells: 10 nM, 5 days of treatment
cHCI-10 = assay: Cell proliferation; format: cell-based, Human; settings: for proliferation of cHCI-10 cells: 10 nM, 5 days of treatment
[2] = system: MDA-MB-231 or MDA-MB-468 cells; assay: Colony formation assay; format: cell-based, Human; settings: 1 to 4 nM; both TNBC cell lines
MDA-MB-231 cells [3] = assay: Immunofluorescence staining of microtubules; format: cell-based, Human; settings: 24 h
MDA-MB-231 cells [4] = assay: Wound healing; format: cell-based, Human; settings: 4 nM, 24 h
[5] = system: MDA-MB-231 and MDA-MB-468 cells; assay: Cell cycle analysis; format: cell-based, Human; settings: 10 nM; 24 h
MDA-MB-231/TxR = assay: Cell proliferation; format: cell-based; settings: Homo sapiens, read-out: Mean IC50 ± SEM
MDA-MB-468 = assay: Cell proliferation; format: cell-based; settings: Homo sapiens, MDA-MB-468, read-out: Mean IC50 ± SEM
MDA-MB-468/TxR = assay: Cell proliferation; format: cell-based; settings: Homo sapiens, MDA-MB-468, read-out: Mean IC50 ± SEM
Mia PaCa-2 = assay: Cell proliferation; format: cell-based; settings: Homo sapiens, MIA PaCa-2, read-out: Mean IC50 ± SEM
Mia PaCa-2/ColxR = assay: Cell proliferation; format: cell-based; settings: Homo sapiens, MIA PaCa-2, read-out: Mean IC50 ± SEM
[6] = Homo sapiens, 120 h, read-out: Mean IC50 ± SEM

IC50 (MDA-MB-231/TxR) [nM] | IC50 (MDA-MB-468) [nM] | IC50 (MDA-MB-468/TxR) [nM] | IC50 (Mia PaCa-2) [nM] | IC50 (Mia PaCa-2/ColxR) [nM] | SMILES | average tumor volume vs vehicle ([1]; 28 mg/kg (equivalent to 20 mg/kg CA4) IP 5 times/week) | body weight ([1]; 28 mg/kg IP 5 times/week) | proliferation of cHCI-2 cells (cHCI-2) | proliferation of cHCI-10 cells (cHCI-10) | colony formation [2] | microtubule structure (MDA-MB-231 cells [3]; 2.5 nM) | microtubule structure (MDA-MB-231 cells [3]; 5 nM, interphase) | wound closure (MDA-MB-231 cells [4]) | cell cycle distribution [5] | IC50 (cHCI-2; [6]) [nM] | IC50 (cHCI-10; [6]) [nM] | microtubule structure (MDA-MB-231 cells [3]; 2.5 nM or 5 nM, interphase and mitotic phase)
 |  |  |  |  | COc1ccc(/C=C\c2cc(OC)c(OC)c(OC)c2)cc1OP(=O)(O)O [CA4P, fosbretabulin] | significantly reduced | no significant loss in body weight |  |  |  |  |  |  |  |  |  | 
 |  |  |  |  | COc1cc2c(c(OC)c1OC)-c1ccc(OC)c(=O)cc1[C@@H](NC(C)=O)CC2 [Colchicine] |  |  | limited effects | limited effects | no effect | similarly organized and intact microtubule structures as untreated cells | disseminated and depolymerized microtubule arrangement | closed similar to untreated control cells | little effect on cell cycle progression |  |  | 
112 ± 37.8 | 2 ± 0.2 | 152 ± 23.8 | 5.5 ± 0.6 | 10.6 ± 1.1 | CC(=O)O[C@H]1C(=O)[C@@]2(C)[C@H]([C@H](OC(=O)c3ccccc3)[C@]3(O)C[C@H](OC(=O)[C@H](O)[C@@H](NC(=O)c4ccccc4)c4ccccc4)C(C)=C1C3(C)C)[C@]1(OC(C)=O)CO[C@@H]1C[C@@H]2O [Paclitaxel] |  |  | reduced the proliferation | no activity | robustly inhibited colony formation |  |  |  | arrested the cells into the M phase and the subG1 phase | 12.7 ± 5.8 | 43.6 ± 8.2 | condensed microtubules
